Source: patent US20230364084A1, “METHODS FOR PREVENTING OR TREATING CONDITIONS RELATED TO PIKFYVE ACTIVITY” (The Regents of the University of Michigan, priority 2020, published 2023)

Columns and labels:
CXCL10 in VCaP cells = experiment: human CXCL10 ELISA of conditioned medium; format: cell-based; settings: VCaP-conditioned medium, 300 nM, 24 hours
Protocol: Conditioned medium was collected after 24 hours of drug incubation. ELISA was performed using a human CXCL10 ELISA kit (Cat No. KAC2361, ThermoFisher), or a mouse CXCL10 ELISA kit (Cat No. ab214563, Abcam) according to the manufacturer's instructions.

[1] = test system: advanced, relapsed, or refractory solid tumors; settings: cited from earlier work
Tie-2 (TEK) = Tie-2 (TEK) (Homo sapiens, UniProt Q02763); settings: cited from earlier work
PIKfyve = PIKfyve (Homo sapiens, UniProt Q9Y2I7); experiment: kinase dissociation constant analysis (KdELECT); format: binding; design: purchased DiscoveRX (KINOMEscan scanLIPID panel; KdELECT); settings: 11-point dose-response, duplicate
Protocol: Quantitative binding constants (Kd) of ESK981 to PIKfyve, PIP5K1A, PIP5K1C, and PIK3CA were generated using KdELECT® platform (DiscoveRX). An 11-point dose-response of ESK981 (0.05-3000 nM) was used, and the experiment was performed in duplicate. Detailed information is described on the DiscoveRX website (www.discoverx.com).

[2] = test system: CXCL10 in VCaP, PC3 and DU145 cells; experiment: CXCL10 mRNA by qPCR in the presence of IFNγ; format: cell-based, human; settings: PC3 and DU145, 24 hours
Protocol: Total RNA was extracted from cells or tissue using the miRNeasy mini kit (Qiagen), and cDNA was synthesized from 1 μg total RNA using the High Capacity cDNA Reverse Transcription Kit (Applied Biosystems). qPCR was performed using Fast SYBR Green Master Mix (Applied Biosystems) on the ViiA7 Real-Time PCR System (Applied Biosystems). The target mRNA expression was quantified using the ΔΔCt method and normalized to GAPDH expression. The primer sequences used for the SYBR green qPCR are as follows: […]

[3] = test system: GFP-LC3 expressing DU145 cells; experiment: GFP-LC3 puncta confocal imaging; format: cell-based, human
Protocol: For GFP-LC3 confocal imaging, GFP-LC3 expressing DU145 cells were seeded on coverslips overnight and treated with ESK981 at 300 nM for various time points. Coverslips were then fixed with 10% paraformaldehyde. Confocal images were taken using a Nikon A1 confocal microscope.

[4] = test system: invasive prostate cancer cell lines; experiment: Matrigel invasion assay; format: cell-based, human; settings: four invasive prostate cancer cell lines, 24-hour incubation
Protocol: 2-5×10^5 cells were seeded onto 8-μm Matrigel-coated fluoroblok transwells with serum-free medium and various concentrations of ESK981. Medium containing 10% FBS in the lower chamber served as a chemoattractant. After 24-hour incubation, invaded cells were stained with […] at 37° C., and fluorescence intensity was quantified with a TECAN M1000 plate reader.

LAMP1 in DU145 cells = experiment: LAMP1 immunofluorescence; format: cell-based, human; settings: 300 nM, 24 hours
Protocol: For LAMP1 immunofluorescence, cells were seeded on coverslips overnight and treated with ESK981 at 300 nM for 24 hours. Coverslips were fixed with 10% paraformaldehyde and permeabilized with 10% saponin. Coverslips were then blocked with 10% goat serum and stained with LAMP1 antibody (Cat No. 9091, Cell Signaling Technology) and fluorescently-labelled secondary antibody. Confocal images were taken using a Nikon A1 confocal microscope.

Myc-CaP tumors = experiment: Myc-CaP syngeneic murine prostate model in FVB mice; format: in vivo, mouse
Protocol: MYC-driven murine prostate cancer cells (Myc-CaP) were injected at a density of 1×10^6 subcutaneously into both flanks of 4- to 6-week old FVB mice (Charles River Laboratories) in serum-free medium with 50% Matrigel. When tumors reached ˜50 mm^3, tumor-bearing mice were randomized and treated with 15 mg/kg or 30 mg/kg ESK981 or vehicle (ORA-PLUS) by oral gavage 5 days per week. For the ESK981 and anti-PD-1 combination study, 15 mg/kg ESK981 or vehicle were given 5 days per week by oral gavage, while anti-PD-1 (Cat No. BE0146, BioXcell) or isotype control (Cat No. BE0089, BioXcell) were given at 200 μg per mouse 3 times per week by intraperitoneal injection (i.p.). For the ESK981 and anti-CXCR3 combination study, 15 mg/kg ESK981 or vehicle were given 5 days per week by oral gavage, while anti-CXCR3 (Cat No. BE0249, BioXcell) or isotype control (Cat No. BE0091, BioXcell) were given at 100 μg per mouse 3 times per week by i.p. For the shPikfyve study, Myc-CaP shPikfyve cells were injected at a density of 2×10^6 subcutaneously into both flanks of 4- to 6-week old NSG or FVB mice in serum-free medium with 50% Matrigel. When tumors reached 100 mm^3, tumor-bearing mice were randomized and treated with normal diet or doxycycline 625 mg/kg diet (Envigo). For the shPikfyve and anti-PD-1 combination study, Myc-CaP shPikfyve cells were injected at a density of 2×10^6 subcutaneously into both flanks of 4- to 6-week old FVB mice in serum-free medium with 50% Matrigel. When tumors reached 100 mm^3, tumor-bearing mice were randomized and treated with normal diet or doxycycline 625 mg/kg diet for 7 days, and then anti-PD-1 or isotype control were given at 200 μg per mouse 3 times per week in combination with normal or doxycycline diet.

[5] = test system: autophagosomes in LNCaP, VCaP and DU145 cells; experiment: CYTO-ID autophagosome detection; format: cell-based, human; settings: 24 hours
Protocol: 10,000 cells were plated in 96-well plates and incubated with 300 nM of the various compounds for 24 hours. Autophagy activities were detected with CYTO-ID® Autophagy detection kit (Cat No. ENZ-KIT175, Enzo Life Science) according to the manufacturer's instructions, with fluorescence intensity measured on a TECAN M1000 plate reader. Autophagosome induction factor was calculated according to the manufacturer's instructions.

[6] = 15 mg/kg solo treatment, four weeks

Chain of Tie-2 (TEK) (Q02763 23-1124, species assumed): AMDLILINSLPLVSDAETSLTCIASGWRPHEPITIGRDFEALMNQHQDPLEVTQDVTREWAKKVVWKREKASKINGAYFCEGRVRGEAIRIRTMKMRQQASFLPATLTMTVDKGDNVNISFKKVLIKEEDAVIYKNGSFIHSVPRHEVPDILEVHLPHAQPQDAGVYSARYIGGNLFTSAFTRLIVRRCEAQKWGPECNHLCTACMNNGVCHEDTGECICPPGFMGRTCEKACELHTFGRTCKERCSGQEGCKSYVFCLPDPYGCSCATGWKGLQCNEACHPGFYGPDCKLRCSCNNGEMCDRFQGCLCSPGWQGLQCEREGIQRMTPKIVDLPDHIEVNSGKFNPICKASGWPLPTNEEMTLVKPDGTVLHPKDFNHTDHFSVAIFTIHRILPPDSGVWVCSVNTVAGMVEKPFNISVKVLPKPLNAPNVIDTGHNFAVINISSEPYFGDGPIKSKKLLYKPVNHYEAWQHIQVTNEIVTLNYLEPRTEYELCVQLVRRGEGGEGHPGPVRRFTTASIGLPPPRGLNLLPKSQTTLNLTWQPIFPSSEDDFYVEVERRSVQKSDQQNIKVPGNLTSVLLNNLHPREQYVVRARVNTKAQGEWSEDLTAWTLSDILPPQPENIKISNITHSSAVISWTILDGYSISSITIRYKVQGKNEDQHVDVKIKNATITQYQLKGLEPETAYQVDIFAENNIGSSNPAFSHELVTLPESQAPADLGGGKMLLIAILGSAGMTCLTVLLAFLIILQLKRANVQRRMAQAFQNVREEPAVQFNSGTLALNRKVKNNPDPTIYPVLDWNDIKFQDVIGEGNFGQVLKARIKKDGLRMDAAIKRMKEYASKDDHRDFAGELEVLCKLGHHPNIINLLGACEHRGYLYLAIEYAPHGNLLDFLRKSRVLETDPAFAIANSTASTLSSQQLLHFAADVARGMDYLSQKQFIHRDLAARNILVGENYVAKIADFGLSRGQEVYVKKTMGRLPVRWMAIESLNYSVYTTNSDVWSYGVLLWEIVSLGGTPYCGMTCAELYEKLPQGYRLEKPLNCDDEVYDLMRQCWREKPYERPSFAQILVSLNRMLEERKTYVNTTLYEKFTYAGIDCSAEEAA
Chain of PIKfyve (Q9Y2I7 whole entry): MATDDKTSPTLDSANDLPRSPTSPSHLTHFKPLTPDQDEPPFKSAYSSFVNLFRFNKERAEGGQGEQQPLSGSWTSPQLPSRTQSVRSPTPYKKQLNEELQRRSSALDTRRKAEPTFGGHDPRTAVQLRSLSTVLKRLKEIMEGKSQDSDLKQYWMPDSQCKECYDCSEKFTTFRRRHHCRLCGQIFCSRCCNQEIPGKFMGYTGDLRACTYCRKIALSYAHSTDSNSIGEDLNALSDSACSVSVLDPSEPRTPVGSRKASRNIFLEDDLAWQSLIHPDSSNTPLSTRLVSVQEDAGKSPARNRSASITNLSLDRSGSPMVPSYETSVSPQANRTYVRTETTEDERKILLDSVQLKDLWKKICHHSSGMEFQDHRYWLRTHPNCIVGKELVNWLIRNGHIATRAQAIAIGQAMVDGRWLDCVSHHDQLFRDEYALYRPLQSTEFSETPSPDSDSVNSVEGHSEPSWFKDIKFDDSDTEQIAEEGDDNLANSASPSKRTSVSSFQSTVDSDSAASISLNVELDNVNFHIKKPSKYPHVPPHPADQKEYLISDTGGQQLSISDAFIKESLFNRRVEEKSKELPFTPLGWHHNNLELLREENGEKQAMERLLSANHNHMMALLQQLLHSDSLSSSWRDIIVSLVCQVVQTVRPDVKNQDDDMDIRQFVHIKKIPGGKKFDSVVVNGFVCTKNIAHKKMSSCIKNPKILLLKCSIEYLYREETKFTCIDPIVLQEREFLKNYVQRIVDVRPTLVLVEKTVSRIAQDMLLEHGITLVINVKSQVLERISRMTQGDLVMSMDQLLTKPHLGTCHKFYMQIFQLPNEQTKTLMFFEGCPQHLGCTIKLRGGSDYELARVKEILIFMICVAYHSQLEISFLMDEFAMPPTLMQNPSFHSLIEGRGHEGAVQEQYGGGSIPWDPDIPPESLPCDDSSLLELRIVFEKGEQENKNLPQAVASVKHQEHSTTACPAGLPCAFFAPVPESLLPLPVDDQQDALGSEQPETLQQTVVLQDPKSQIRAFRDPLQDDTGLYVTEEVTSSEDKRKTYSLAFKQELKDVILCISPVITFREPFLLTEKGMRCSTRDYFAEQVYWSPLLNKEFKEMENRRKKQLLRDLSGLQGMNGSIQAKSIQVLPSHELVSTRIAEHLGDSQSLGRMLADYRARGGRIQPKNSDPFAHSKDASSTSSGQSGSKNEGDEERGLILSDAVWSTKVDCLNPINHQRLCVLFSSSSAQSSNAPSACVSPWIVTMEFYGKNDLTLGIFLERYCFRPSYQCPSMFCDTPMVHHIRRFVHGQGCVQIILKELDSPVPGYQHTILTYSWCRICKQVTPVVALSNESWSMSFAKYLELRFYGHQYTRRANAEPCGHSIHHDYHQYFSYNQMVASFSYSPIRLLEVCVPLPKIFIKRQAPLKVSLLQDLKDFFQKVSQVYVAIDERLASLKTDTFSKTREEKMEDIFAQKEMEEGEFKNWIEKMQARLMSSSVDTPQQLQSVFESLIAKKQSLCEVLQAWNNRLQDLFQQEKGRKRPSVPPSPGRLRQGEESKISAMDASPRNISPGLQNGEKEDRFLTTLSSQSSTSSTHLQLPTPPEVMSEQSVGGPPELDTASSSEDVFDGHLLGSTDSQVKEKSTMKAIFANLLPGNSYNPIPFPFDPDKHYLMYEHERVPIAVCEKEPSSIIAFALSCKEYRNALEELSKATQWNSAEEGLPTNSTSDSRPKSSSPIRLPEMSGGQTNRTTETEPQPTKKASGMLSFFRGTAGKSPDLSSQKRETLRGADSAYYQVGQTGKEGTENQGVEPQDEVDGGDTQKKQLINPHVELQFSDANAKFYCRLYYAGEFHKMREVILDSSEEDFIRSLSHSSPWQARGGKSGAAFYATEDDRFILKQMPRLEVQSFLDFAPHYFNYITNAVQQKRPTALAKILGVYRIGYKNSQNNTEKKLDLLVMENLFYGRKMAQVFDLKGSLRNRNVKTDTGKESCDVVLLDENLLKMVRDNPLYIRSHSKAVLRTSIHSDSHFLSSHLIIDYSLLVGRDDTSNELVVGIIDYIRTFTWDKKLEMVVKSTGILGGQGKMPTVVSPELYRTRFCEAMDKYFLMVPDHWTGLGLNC

CC(C)Cn1c2ccc(Nc3ncccn3)cc2c2c3c(c4c(c21)CCc1nn(C)cc1-4)C(=O)NC3 [ESK981, 13-isobutyl-4-methyl-10-(pyrimidin-2-ylamino)-1,2,4,7,8,13-hexahydro-6H-indazolo[5,4-a]pyrrolo[3,4-c]carbazol-6-one]
rank in inducing CXCL10 levels among compound libraries (CXCL10 in VCaP cells): ranked first in inducing CXCL10 levels in the tyrosine kinase inhibitor library and second in the autophagy-linked compound library | evaluable patients achieving stable disease ([1]; measured at ≥6 weeks of ESK981 treatment): 51% | safety, pharmacokinetic and pharmacodynamic profiles ([1]; patients with advanced, relapsed, or refractory solid tumors): favorable safety, pharmacokinetic, and pharmacodynamic profiles | activity against kinase (Tie-2 (TEK)): potent activity | Kd (PIKfyve): 12 nM | expression of CXCL10 in the presence of IFNγ [2]: enhance expression of CXCL10 | time to vacuole formation [3]: only observed after four hours of treatment | time to LC3 puncta formation ([3]; 300 nM): ≤ 1 h | invasion [4]: inhibited invasion in a dose-dependent manner | LAMP1 staining of ESK981-induced vacuoles (LAMP1 in DU145 cells): positive for the lysosomal marker LAMP1 | effect of co-treatment on the anti-PD-1 tumor inhibitory effect (Myc-CaP tumors; 15 mg/kg ESK981 with anti-PD-1, 6 weeks): strongly enhanced | Cd3 mRNA in tumors (Myc-CaP tumors; [6]): upregulated | Cxcl10 mRNA in tumors (Myc-CaP tumors; [6]): upregulated | Cd3 mRNA levels in tumors (Myc-CaP tumors; 15 mg/kg, 30 mg/kg): dose-dependent upregulation | tumor doubling time (progression-free survival) (Myc-CaP tumors; 15 mg/kg, 30 mg/kg): significantly increased tumor doubling time | average Cxcl10 levels in tumors (Myc-CaP tumors; 15 mg/kg, 30 mg/kg, dose-dependent): significantly increased | tumor growth (Myc-CaP tumors; 15 mg/kg, 30 mg/kg, oral gavage 5 days per week, three weeks): dose-dependent growth inhibition | LC3 lipidation in tumors (Myc-CaP tumors; 15 mg/kg, five days of treatment): elevated LC3 lipidation | bioluminescent-negative tumors (Myc-CaP tumors; 30 mg/kg group, day 19): five out of ten | CD3+ T cell trafficking in the tumor microenvironment (Cd3 RNA ISH) (Myc-CaP tumors; single agents): increased | rank in autophagosome induction among compound libraries ([5]; DU145 cells, 300 nM, vs 154 autophagy-related compounds and 167 tyrosine kinase inhibitors): highest potency at inducing autophagosome levels | autophagosome signals (CYTO-ID fluorescence intensity) ([5]; LNCaP, VCaP and DU145 cells, increasing concentrations): dose-dependent induction of autophagosome signals | level of autophagosome induction compared with rapamycin ([5]; VCaP and LNCaP cells): higher than a known autophagy activator, the mTOR inhibitor rapamycin
